According to patent publication US20230330093A1, “APPLICATION OF NITROGEN-CONTAINING SATURATED HETEROCYCLIC COMPOUND” (SHANGHAI PHARMACEUTICALS HOLDING CO., LTD., priority 2020, published 2023):

System: cynomolgus monkeys
Test: 4-week safety study: routine ECG analysis
Assay type: in vivo
Protocol: Routine ECG analysis was performed at each scheduled time (day 1 after administration, d01 and d02 after administration, 1 and 24 h after administration on day 1, before administration, and 1 and 24 h after administration on day 26 and day 56). P-wave, R-wave, T-wave, P-R intervals, Q-T intervals, QRS duration and heart rate were recorded by an ECG system using derivation DII (ECG-6951E, Shanghai, China).

COC(=O)NCCCn1nc([C@@H](C)N(C(=O)[C@H]2CNCCO2)C2CC2)c2ccc(C)nc21 [compound of Formula I]
HR (Female, 20 mg/kg, 1 h (d 1)): 230.1 ± 20.5 bmp
QRS (Female, 20 mg/kg, 1 h (d 1)): 38.0 ± 4.5 ms
QT (Female, 20 mg/kg, 1 h (d 1)): 160.0 ± 7.1 ms
QTc (Female, 20 mg/kg, 1 h (d 1)): 250.2 ± 10.4 ms
HR (Female, 20 mg/kg, 1 h (d 26)): 262.8 ± 13.5 bmp
QRS (Female, 20 mg/kg, 1 h (d 26)): 36.0 ± 5.5 ms
QT (Female, 20 mg/kg, 1 h (d 26)): 140.0 ± 7.1 ms
QTc (Female, 20 mg/kg, 1 h (d 26)): 228.9 ± 8.0 ms
HR (Female, 20 mg/kg, 24 h (d 1)): 209.8 ± 9.3 bmp
QRS (Female, 20 mg/kg, 24 h (d 1)): 34.0 ± 8.9 ms
QT (Female, 20 mg/kg, 24 h (d 1)): 158.0 ± 4.5 ms
QTc (Female, 20 mg/kg, 24 h (d 1)): 239.7 ± 5.4 ms
HR (Female, 20 mg/kg, 24 h (d 26)): 245.4 ± 43.9 bmp
QRS (Female, 20 mg/kg, 24 h (d 26)): 36.0 ± 5.5 ms
QT (Female, 20 mg/kg, 24 h (d 26)): 150.0 ± 10.0 ms
QTc (Female, 20 mg/kg, 24 h (d 26)): 238.6 ± 14.1 ms
HR (Female, 20 mg/kg, d0): 185.7 ± 48.0 bmp
QRS (Female, 20 mg/kg, d0): 34.0 ± 5.5 ms
QT (Female, 20 mg/kg, d0): 170.0 ± 20.0 ms
QTc (Female, 20 mg/kg, d0): 244.6 ± 14.3 ms
HR (Female, 20 mg/kg, d 56): 238.0 ± 29.2 bmp
QRS (Female, 20 mg/kg, d 56): 40.0 ± 0.0 ms
QT (Female, 20 mg/kg, d 56): 160.0 ± 0.0 ms
QTc (Female, 20 mg/kg, d 56): 253.1 ± 10.4 ms
HR (Female, 100 mg/kg, 1 h (d 1)): 228.5 ± 12.8 bmp
QRS (Female, 100 mg/kg, 1 h (d 1)): 36.0 ± 5.5 ms
QT (Female, 100 mg/kg, 1 h (d 1)): 160.0 ± 7.1 ms
QTc (Female, 100 mg/kg, 1 h (d 1)): 249.6 ± 6.7 ms
HR (Female, 100 mg/kg, 1 h (d 26)): 246.4 ± 40.7 bmp
QRS (Female, 100 mg/kg, 1 h (d 26)): 38.0 ± 4.5 ms
QT (Female, 100 mg/kg, 1 h (d 26)): 170.0 ± 10.0 ms
QTc (Female, 100 mg/kg, 1 h (d 26)): 271.1 ± 17.2 ms
HR (Female, 100 mg/kg, 24 h (d 1)): 217.6 ± 22.7 bmp
QRS (Female, 100 mg/kg, 24 h (d 1)): 34.0 ± 5.5 ms
QT (Female, 100 mg/kg, 24 h (d 1)): 162.0 ± 11.0 ms
QTc (Female, 100 mg/kg, 24 h (d 1)): 248.2 ± 7.7 ms
HR (Female, 100 mg/kg, 24 h (d 26)): 256.1 ± 17.1 bmp
QRS (Female, 100 mg/kg, 24 h (d 26)): 38.0 ± 4.5 ms
QT (Female, 100 mg/kg, 24 h (d 26)): 148.0 ± 8.4 ms
QTc (Female, 100 mg/kg, 24 h (d 26)): 239.8 ± 10.5 ms
HR (Female, 100 mg/kg, d0): 182.3 ± 28.9 bmp
QRS (Female, 100 mg/kg, d0): 32.0 ± 4.5 ms
QT (Female, 100 mg/kg, d0): 170.0 ± 12.2 ms
QTc (Female, 100 mg/kg, d0): 245.0 ± 9.2 ms
HR (Female, 100 mg/kg, d 56): 230.8 ± 5.0 bmp
QRS (Female, 100 mg/kg, d 56): 30.0 ± 0.0 ms
QT (Female, 100 mg/kg, d 56): 160.0 ± 0.0 ms
QTc (Female, 100 mg/kg, d 56): 250.7 ± 1.8 ms
HR (Female, 450 mg/kg, 1 h (d 1)): 211.3 ± 20.5 bmp
QRS (Female, 450 mg/kg, 1 h (d 1)): 50.0 ± 14.1 ms
QT (Female, 450 mg/kg, 1 h (d 1)): 175.0 ± 17.3 ms
QTc (Female, 450 mg/kg, 1 h (d 1)): 265.5 ± 19.9 ms
HR (Female, 450 mg/kg, 1 h (d 26)): 262.7 ± 15.4 bmp
QRS (Female, 450 mg/kg, 1 h (d 26)): 40.0 ± 0.2 ms
QT (Female, 450 mg/kg, 1 h (d 26)): 140.0 ± 8.2 ms
QTc (Female, 450 mg/kg, 1 h (d 26)): 229.0 ± 14.6 ms
HR (Female, 450 mg/kg, 24 h (d 1)): 211.3 ± 2.4 bmp
QRS (Female, 450 mg/kg, 24 h (d 1)): 35.0 ± 5.8 ms
QT (Female, 450 mg/kg, 24 h (d 1)): 162.5 ± 9.6 ms
QTc (Female, 450 mg/kg, 24 h (d 1)): 247.2 ± 13.8 ms
HR (Female, 450 mg/kg, 24 h (d 26)): 257.8 ± 9.0 bmp
QRS (Female, 450 mg/kg, 24 h (d 26)): 32.5 ± 5.0 ms
QT (Female, 450 mg/kg, 24 h (d 26)): 152.5 ± 9.6 ms
QTc (Female, 450 mg/kg, 24 h (d 26)): 247.8 ± 14.4 ms
HR (Female, 450 mg/kg, d0): 174.1 ± 28.8 bmp
QRS (Female, 450 mg/kg, d0): 32.0 ± 4.5 ms
QT (Female, 450 mg/kg, d0): 168.0 ± 16.4 ms
QTc (Female, 450 mg/kg, d0): 238.1 ± 12.7 ms
HR (Female, 450 mg/kg, d 56): 207.4 ± 28.1 bmp
QRS (Female, 450 mg/kg, d 56): 25.0 ± 7.1 ms
QT (Female, 450 mg/kg, d 56): 170.0 ± 14.1 ms
QTc (Female, 450 mg/kg, d 56): 256.3 ± 9.7 ms
HR (Male, 20 mg/kg, 1 h (d 1)): 216.0 ± 27.0 bmp
QRS (Male, 20 mg/kg, 1 h (d 1)): 32.0 ± 4.5 ms
QT (Male, 20 mg/kg, 1 h (d 1)): 158.0 ± 11.0 ms
QTc (Male, 20 mg/kg, 1 h (d 1)): 241.4 ± 12.3 ms
HR (Male, 20 mg/kg, 1 h (d 26)): 260.0 ± 12.4 bmp
QRS (Male, 20 mg/kg, 1 h (d 26)): 36.0 ± 5.5 ms
QT (Male, 20 mg/kg, 1 h (d 26)): 146.0 ± 11.4 ms
QTc (Male, 20 mg/kg, 1 h (d 26)): 237.8 ± 16.3 ms
HR (Male, 20 mg/kg, 24 h (d 1)): 206.1 ± 20.7 bmp
QRS (Male, 20 mg/kg, 24 h (d 1)): 28.0 ± 4.5 ms
QT (Male, 20 mg/kg, 24 h (d 1)): 166.0 ± 8.9 ms
QTc (Male, 20 mg/kg, 24 h (d 1)): 250.0 ± 10.4 ms
HR (Male, 20 mg/kg, 24 h (d 26)): 264.9 ± 16.1 bmp
QRS (Male, 20 mg/kg, 24 h (d 26)): 34.0 ± 5.5 ms
QT (Male, 20 mg/kg, 24 h (d 26)): 146.0 ± 11.4 ms
QTc (Male, 20 mg/kg, 24 h (d 26)): 239.2 ± 14.8 ms
HR (Male, 20 mg/kg, d0): 198.4 ± 16.5 bmp
QRS (Male, 20 mg/kg, d0): 34.0 ± 8.9 ms
QT (Male, 20 mg/kg, d0): 164.0 ± 11.4 ms
QTc (Male, 20 mg/kg, d0): 243.9 ± 11.7 ms
HR (Male, 20 mg/kg, d 56): 225.6 ± 2.4 bmp
QRS (Male, 20 mg/kg, d 56): 30.0 ± 0.0 ms
QT (Male, 20 mg/kg, d 56): 145.0 ± 7.1 ms
QTc (Male, 20 mg/kg, d 56): 225.4 ± 10.2 ms
HR (Male, 100 mg/kg, 1 h (d 1)): 230.0 ± 19.9 bmp
QRS (Male, 100 mg/kg, 1 h (d 1)): 38.0 ± 4.5 ms
QT (Male, 100 mg/kg, 1 h (d 1)): 156.0 ± 11.4 ms
QTc (Male, 100 mg/kg, 1 h (d 1)): 243.8 ± 16.5 ms
HR (Male, 100 mg/kg, 1 h (d 26)): 256.9 ± 16.7 bmp
QRS (Male, 100 mg/kg, 1 h (d 26)): 36.0 ± 5.5 ms
QT (Male, 100 mg/kg, 1 h (d 26)): 144.0 ± 5.5 ms
QTc (Male, 100 mg/kg, 1 h (d 26)): 233.8 ± 12.2 ms
HR (Male, 100 mg/kg, 24 h (d 1)): 208.2 ± 10.4 bmp
QRS (Male, 100 mg/kg, 24 h (d 1)): 36.0 ± 8.9 ms
QT (Male, 100 mg/kg, 24 h (d 1)): 162.0 ± 11.0 ms
QTc (Male, 100 mg/kg, 24 h (d 1)): 245.3 ± 18.6 ms
HR (Male, 100 mg/kg, 24 h (d 26)): 260.7 ± 9.1 bmp
QRS (Male, 100 mg/kg, 24 h (d 26)): 36.0 ± 5.5 ms
QT (Male, 100 mg/kg, 24 h (d 26)): 144.0 ± 8.9 ms
QTc (Male, 100 mg/kg, 24 h (d 26)): 234.9 ± 13.9 ms
HR (Male, 100 mg/kg, d0): 215.4 ± 11.2 bmp
QRS (Male, 100 mg/kg, d0): 32.0 ± 8.4 ms
QT (Male, 100 mg/kg, d0): 154.0 ± 16.7 ms
QTc (Male, 100 mg/kg, d0): 235.6 ± 24.5 ms
HR (Male, 100 mg/kg, d 56): 225.6 ± 2.4 bmp
QRS (Male, 100 mg/kg, d 56): 35.0 ± 7.1 ms
QT (Male, 100 mg/kg, d 56): 165.0 ± 7.1 ms
QTc (Male, 100 mg/kg, d 56): 256.6 ± 11.9 ms
HR (Male, 450 mg/kg, 1 h (d 1)): 217.4 ± 3.2 bmp
QRS (Male, 450 mg/kg, 1 h (d 1)): 36.7 ± 5.8 ms
QT (Male, 450 mg/kg, 1 h (d 1)): 170.0 ± 10.0 ms
QTc (Male, 450 mg/kg, 1 h (d 1)): 261.1 ± 16.0 ms
HR (Male, 450 mg/kg, 1 h (d 26)): 247.6 ± 22.6 bmp
QRS (Male, 450 mg/kg, 1 h (d 26)): 36.0 ± 13.4 ms
QT (Male, 450 mg/kg, 1 h (d 26)): 150.0 ± 17.3 ms
QTc (Male, 450 mg/kg, 1 h (d 26)): 240.0 ± 23.7 ms
HR (Male, 450 mg/kg, 24 h (d 1)): 211.0 ± 15.9 bmp
QRS (Male, 450 mg/kg, 24 h (d 1)): 32.0 ± 4.5 ms
QT (Male, 450 mg/kg, 24 h (d 1)): 166.0 ± 8.9 ms
QTc (Male, 450 mg/kg, 24 h (d 1)): 252.1 ± 9.4 ms
HR (Male, 450 mg/kg, 24 h (d 26)): 210.4 ± 49.9 bmp
QRS (Male, 450 mg/kg, 24 h (d 26)): 38.0 ± 4.5 ms
QT (Male, 450 mg/kg, 24 h (d 26)): 158.0 ± 13.0 ms
QTc (Male, 450 mg/kg, 24 h (d 26)): 237.7 ± 12.2 ms
HR (Male, 450 mg/kg, d0): 214.3 ± 17.7 bmp
QRS (Male, 450 mg/kg, d0): 34.0 ± 5.5 ms
QT (Male, 450 mg/kg, d0): 156.0 ± 5.5 ms
QTc (Male, 450 mg/kg, d0): 238.2 ± 7.2 ms
HR (Male, 450 mg/kg, d 56): 203.3 ± 15.5 bmp
QRS (Male, 450 mg/kg, d 56): 35.0 ± 7.1 ms
QT (Male, 450 mg/kg, d 56): 160.0 ± 0.0 ms
QTc (Male, 450 mg/kg, d 56): 240.2 ± 6.1 ms
QRS intervals (high-dose females, 1 h after administration on d1 and d26): Prolonged
QRS intervals (one high-dose male (animal No. 411), 1 h after administration on d26, prolonged): 60 ms
Sinus arrhythmia (one high-dose male, 1 h after administration on d26): Sinus arrhythmia was observed in one high-dose male
QTc intervals (one mid-dose female (animal No. 303), 1 h after administration on d26, prolonged): 296 ms
